From US20260159500A1, “KINESIN KIF18A INHIBITOR AND USE THEREOF” (SHANGHAI APEIRON THERAPEUTICS COMPANY LIMITED, priority 2022, published 2026)

How the values were obtained:
[1] = target: T1, Human KIF18A (amino acid sequence 1-417) (Homo sapiens, UniProt Q8NI77); experiment: Enzymatic activity test (ADP-Glo, microtubule-stimulated KIF18A ATPase); type: biochemical; conditions: 60 μg/mL microtubules, 25 μM ATP, 2.5 nM KIF18A protein, 120 min at ambient temperature, read-out: KIF18A_nM
T1 construct: purchased Viva Biotech (Shanghai) Ltd
T1 sequence (Q8NI77 1-417): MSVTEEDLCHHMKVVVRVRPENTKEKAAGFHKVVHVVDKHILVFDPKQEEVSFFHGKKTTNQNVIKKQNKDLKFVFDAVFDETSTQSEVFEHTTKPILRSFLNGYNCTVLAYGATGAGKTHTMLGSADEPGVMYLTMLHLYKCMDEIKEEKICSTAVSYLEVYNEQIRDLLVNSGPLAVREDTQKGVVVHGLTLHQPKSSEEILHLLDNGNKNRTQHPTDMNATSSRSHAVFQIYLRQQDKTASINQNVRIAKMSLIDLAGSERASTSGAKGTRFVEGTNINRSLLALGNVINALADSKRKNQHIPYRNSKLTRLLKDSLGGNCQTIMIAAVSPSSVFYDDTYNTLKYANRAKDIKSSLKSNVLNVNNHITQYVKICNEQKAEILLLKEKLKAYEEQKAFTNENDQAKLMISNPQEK
In short: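 Microtubule-stimulated ATPase of KIF18A(1-417) run with 60 μg/mL microtubules, 25 μM ATP and 2.5 nM enzyme, compounds at 0-10 μM final, 120 min at ambient temperature. ADP formed was read by ADP-Glo chemiluminescence after two 30-min reagent incubations.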

OVCAR3 cells = experiment: Cell proliferation activity test in OVCAR3 cells (CyQUANT Direct); type: cell-based; conditions: Homo sapiens, OVCAR-3, 72 h, 3 days incubation, CyQUANT fluorescence detection, read-out: OVCAR-3_IC50_nM
In short: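 Log-phase cells in RPMI-1640 with 10% FBS were seeded overnight, then exposed to compound at final 0–10 μM (0.2% DMSO) for 3 days at 37 °C, 5% CO2. Proliferation was read by CyQUANT Direct fluorescence after 60 min at 37 °C.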

HT29 cells = experiment: CyQuant cell proliferation activity test in HT29 cells; type: cell-based; conditions: Homo sapiens, HT-29, 72 h, 2000 cells per well, 3 days incubation, IC50 by XLFIT, read-out: HT29_IC50_nM
In short: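 Cells seeded at 2000/well in RPMI-1640 with 10% FBS, overnight, then exposed 3 days at 37 °C to compound from 3000 nM top, 3-fold, 9 points, 0.2% DMSO. CyQuant read after 1 h; IC50 from curve fit.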

`Cc1ccc2cc(NC(=O)c3ccc(NS(=O)(=O)CCO)cc3N3CCC4(CC3)CC4)nc(N3CCC(F)(F)CC3)c2n1` [Example 51, N-(8-(4,4-difluoropiperidin-1-yl)-2-methyl-1,7-naphthyridin-6-yl)-4-(2-hydroxyethylsulfonamido)-2-(6-azaspiro[2.5]octan-6-yl)benzamide] showed an IC50 [1] of 455 nM, an IC50 (OVCAR3 cells) of 385 nM and an IC50 (HT29 cells) of 387 nM.
For `COc1ccc2cc(NC(=O)c3ccc(NS(=O)(=O)CCO)cc3N3CCC4(CC3)CC4)nc(N3CCC(F)(F)CC3)c2n1` [Example 52, N-(8-(4,4-difluoropiperidin-1-yl)-2-methoxy-1,7-naphthyridin-6-yl)-4-(2-hydroxyethylsulfonamido)-2-(6-azaspiro[2.5]octan-6-yl)benzamide], the IC50 [1] was 149 nM, the IC50 (OVCAR3 cells) was 83 nM and the IC50 (HT29 cells) was 92 nM.
`Nc1ccc2cc(NC(=O)c3ccc(NS(=O)(=O)CCO)cc3N3CCC4(CC3)CC4)nc(N3CCC(F)(F)CC3)c2n1` [Example 53, N-(2-amino-8-(4,4-difluoropiperidin-1-yl)-1,7-naphthyridin-6-yl)-4-(2-hydroxyethylsulfonamido)-2-(6-azaspiro[2.5]octan-6-yl)benzamide] was tested, and the IC50 [1] was 94 nM, the IC50 (OVCAR3 cells) was 4 nM and the IC50 (HT29 cells) was 6 nM.
`O=C(Nc1cc2ccc(O)nc2c(N2CCC(F)(F)CC2)n1)c1ccc(NS(=O)(=O)CCO)cc1N1CCC2(CC1)CC2` [Example 54, 2-{6-azaspiro[2.5]octan-6-yl}-N-[8-(4,4-difluoropiperidin-1-yl)-2-hydroxy-1,7-naphthyridin-6-yl]-4-(2-hydroxyethanesulfonamido)benzamide] showed an IC50 [1] of 27 nM, an IC50 (OVCAR3 cells) of 6 nM and an IC50 (HT29 cells) of 18 nM.
Work on `O=C(Nc1cc2ccccc2c(N2CCC(F)(F)CC2)n1)c1ccc(NS(=O)(=O)CCO)cc1N1CCC2(CC1)CC2` [Example 55] yielded an IC50 [1] of 250 nM, an IC50 (OVCAR3 cells) of 112 nM and an IC50 (HT29 cells) of 89 nM.
Work on `O=C(Nc1cc2ccncc2c(N2CCC(F)(F)CC2)n1)c1ccc(NS(=O)(=O)CCO)cc1N1CCC2(CC1)CC2` [Example 56] yielded an IC50 [1] of 34 nM, an IC50 (OVCAR3 cells) of 12 nM and an IC50 (HT29 cells) of 13 nM.
`O=C(Nc1cc2cncnc2c(N2CCC(F)(F)CC2)n1)c1ccc(NS(=O)(=O)CCO)cc1N1CCC2(CC1)CC2` [Example 58] gave an IC50 [1] of 32 nM, an IC50 (OVCAR3 cells) of 12 nM and an IC50 (HT29 cells) of 17 nM.
Compound `O=C(Nc1cc2nccnc2c(N2CCC(F)(F)CC2)n1)c1ccc(NS(=O)(=O)CCO)cc1N1CCC2(CC1)CC2` [Example 59] has an IC50 [1] of 38 nM, an IC50 (OVCAR3 cells) of 14 nM and an IC50 (HT29 cells) of 22 nM.
`COc1cc2cc(NC(=O)c3ccc(NS(=O)(=O)CCO)cc3N3CCC4(CC3)CC4)nc(N3CCC(F)(F)CC3)c2nn1` [Example 60, N-(8-(4,4-difluoropiperidin-1-yl)-3-methoxypyrido[3,4-c]pyridazin-6-yl)-4-(2-hydroxyethylsulfonamido)-2-(6-azaspiro[2.5]octan-6-yl)benzamide] was tested, and the IC50 [1] was 66 nM, the IC50 (OVCAR3 cells) was 18 nM and the IC50 (HT29 cells) was 13 nM.
Work on `O=C(Nc1cc2cc(O)nnc2c(N2CCC(F)(F)CC2)n1)c1ccc(NS(=O)(=O)CCO)cc1N1CCC2(CC1)CC2` [Example 61, 2-{6-Azaspiro[2.5]octan-6-yl}-N-[8-(4,4-difluoropiperidin-1-yl)-3-hydroxypyrido[3,4-c]pyridazin-6-yl]-4-(2-hydroxyethanesulfonamido)benzamide] yielded an IC50 [1] of 15 nM, an IC50 (OVCAR3 cells) of 74 nM and an IC50 (HT29 cells) of 111 nM.
`Nc1cc2cc(NC(=O)c3ccc(NS(=O)(=O)CCO)cc3N3CCC4(CC3)CC4)nc(N3CCC(F)(F)CC3)c2nn1` [Example 62, N-[3-amino-8-(4,4-difluoropiperidin-1-yl)pyrido[3,4-c]pyridazin-6-yl]-2-{6-azaspiro[2.5]octan-6-yl}-4-(2-hydroxyethanesulfonamido)benzamide] was tested, and the IC50 [1] was 28 nM, the IC50 (OVCAR3 cells) was 13 nM and the IC50 (HT29 cells) was 12 nM.
Work on `O=C(Nc1cc(N2CCC(F)(F)CC2)c2ncccc2c1)c1ccc(NS(=O)(=O)CCO)cc1N1CCC2(CC1)CC2` [Example 63] yielded an IC50 [1] of 35 nM, an IC50 (OVCAR3 cells) of 11 nM and an IC50 (HT29 cells) of 15 nM.
With `Cc1ccc2cc(NC(=O)c3ccc(NS(=O)(=O)CCO)cc3N3CCC4(CC3)CC4)cc(N3CCC(F)(F)CC3)c2n1` [Example 64] the IC50 [1] was 116 nM, the IC50 (OVCAR3 cells) was 76 nM and the IC50 (HT29 cells) was 82 nM.
In the case of `COc1ccc2cc(NC(=O)c3ccc(NS(=O)(=O)CCO)cc3N3CCC4(CC3)CC4)cc(N3CCC(F)(F)CC3)c2n1` [Example 65, N-(8-(4,4-difluoropiperidin-1-yl)-2-methoxyquinolin-6-yl)-4-(2-hydroxyethylsulfonamide)-2-(6-azaspiro[2.5]octan-6-yl)benzamide], the IC50 [1] is reported as 232 nM, the IC50 (OVCAR3 cells) is reported as 420 nM and the IC50 (HT29 cells) is reported as 372 nM.
For `O=C(Nc1cc(N2CCC(F)(F)CC2)c2nc(O)ccc2c1)c1ccc(NS(=O)(=O)CCO)cc1N1CCC2(CC1)CC2` [Example 66], the IC50 [1] was 23 nM, the IC50 (OVCAR3 cells) was 35 nM and the IC50 (HT29 cells) was 80 nM.
In the case of `Nc1ccc2cc(NC(=O)c3ccc(NS(=O)(=O)CCO)cc3N3CCC4(CC3)CC4)cc(N3CCC(F)(F)CC3)c2n1` [Example 67], the IC50 [1] is reported as 53 nM, the IC50 (OVCAR3 cells) is reported as 7 nM and the IC50 (HT29 cells) is reported as 13 nM.
`N#Cc1ccc2cc(NC(=O)c3ccc(NS(=O)(=O)CCO)cc3N3CCC4(CC3)CC4)cc(N3CCC(F)(F)CC3)c2n1` [Example 68, N-(2-cyano-8-(4,4-difluoropiperidin-1-yl)quinolin-6-yl)-4-((2-hydroxyethyl)sulfon amido)-2-(6-azaspiro[2.5]oct-6-yl)benzamide] showed an IC50 [1] of 306 nM, an IC50 (OVCAR3 cells) of 119 nM and an IC50 (HT29 cells) of 100 nM.
With `O=C(Nc1cc(N2CCC(F)(F)CC2)c2nc(C(F)(F)F)ccc2c1)c1ccc(NS(=O)(=O)CCO)cc1N1CCC2(CC1)CC2` [Example 69, (2-(6-Azaspiro[2.5]octan-6-yl)-4-{[(2-hydroxyethyl)sulfonyl]amino}phenyl)-N-[8-(4,4-difluoropiperidinyl)-2-(trifluoromethyl)(6-quinolinyl)]formamide] the IC50 [1] was 1030 nM, the IC50 (OVCAR3 cells) was 1040 nM and the IC50 (HT29 cells) was 1110 nM.
In the case of `[2H]c1c(NC(=O)c2ccc(NS(=O)(=O)CCO)cc2N2CCC3(CC2)CC3)cc2cccnc2c1N1CCC(F)(F)CC1` [Example 70, N-(8-(4,4-difluoropiperidin-1-yl)quinolin-6-yl-7-d)-4-((2-hydroxyethyl)sulphonamino)-2-(6-azaspiro[2.5]octan-6-yl)benzamide], the IC50 [1] is reported as 43 nM, the IC50 (OVCAR3 cells) is reported as 9 nM and the IC50 (HT29 cells) is reported as 16 nM.
With `O=C(Nc1cc2cccnc2c(N2CCC(F)(F)CC2)c1F)c1ccc(NS(=O)(=O)CCO)cc1N1CCC2(CC1)CC2` [Example 71, N-(8-(4,4-difluoropiperidin-1-yl)-7-fluoroquinolin-6-yl)-4-((2-hydroxyethyl)sulfonamido)-2-(6-azaspiro[2.5]octan-6-yl]benzamide] the IC50 [1] was 128 nM, the IC50 (OVCAR3 cells) was 18 nM and the IC50 (HT29 cells) was 17 nM.
With `O=C(Nc1cc2cccnc2c(N2CCC(F)(F)CC2)c1C(F)(F)F)c1ccc(NS(=O)(=O)CCO)cc1N1CCC2(CC1)CC2` [Example 72, N-(8-(4,4-difluoropiperidin-1-yl)-7-(trifluoromethyl)quinolin-6-yl)-4-((2-hydroxyethyl)sulfonamido)-2-(6-azaspiro[2.5]octan-6-yl)] the IC50 [1] was greater than 3000 nM, the IC50 (OVCAR3 cells) was greater than 3000 nM and the IC50 (HT29 cells) was greater than 3000 nM.
For `O=C(Nc1cc2cccnc2c(N2CCC(F)(F)CC2)c1Cl)c1ccc(NS(=O)(=O)CCO)cc1N1CCC2(CC1)CC2` [Example 73, N-(7-chloro-8-(4,4-difluoropiperidin-1-yl)quinolin-6-yl)-4-((2-hydroxyethyl)sulfonamido)-2-(6-azaspiro[2.5]oct-6-yl)benzamide], the IC50 [1] was greater than 3000 nM, the IC50 (OVCAR3 cells) was 1030 nM and the IC50 (HT29 cells) was 1410 nM.
With `N#Cc1c(NC(=O)c2ccc(NS(=O)(=O)CCO)cc2N2CCC3(CC2)CC3)cc2cccnc2c1N1CCC(F)(F)CC1` [Example 74, N-(7-cyano-8-(4,4-difluoropiperidin-1-yl)quinolin-6-yl)-4-((2-hydroxyethyl)sulfon amido)-2-(6-azaspiro[2.5]oct-6-yl)benzamide] the IC50 [1] was greater than 3000 nM, the IC50 (OVCAR3 cells) was 1530 nM and the IC50 (HT29 cells) was 1790 nM.
In the case of `Cc1ccc2cc(NC(=O)c3ccc(NS(=O)(=O)CCO)cc3N3CCC4(CC3)CC4)c(F)c(N3CCC(F)(F)CC3)c2n1` [Example 75, N-(8-(4,4-difluoropiperidin-1-yl)-7-fluoro-2-methylquinolin-6-yl)-4-((2-hydroxyethyl)sulfonamido)-2-(6-azaspiro[2.5]octan-6-yl)benzamide], the IC50 [1] is reported as 387 nM, the IC50 (OVCAR3 cells) is reported as 83 nM and the IC50 (HT29 cells) is reported as 44 nM.
